Results as given in patent publication US6914045B2, “Glycopeptide antibiotics” (Wyeth Holdings Corporation, priority 2001, dated 2005).
≈ marks a conversion by molar mass, not a printed value.

Experiments:
Test in all cases: in vitro antibacterial evaluation, MIC by broth dilution
Format in all cases: cell-based
Streptococcus sp. = conditions: broth dilution, 18 hours at 35° C.
Method in brief: (§1)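 MIC, the lowest antibiotic concentration preventing growth, was read across 64-0.06 μg/mL with 5×10^5 CFU/mL inoculum. Method followed NCCLS M7-A2 broth dilution using Mueller-Hinton II; Gram-positive strains covered recent methicillin-, penicillin- and/or vancomycin-resistant clinical isolates.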

Escherichia coli = conditions: 18 hours at 35° C.
Method in brief: as §1

Staphylococcus sp. = conditions: broth dilution, 18 hours at 35° C.
Method in brief: as §1

Enterococcus sp. = conditions: broth dilution, 18 hours at 35° C.
Method in brief: as §1

MIC Streptococcus agalactiae (GC 4564) (Streptococcus sp.; Streptococcus agalactiae (GC 4564)): 0.25 µg/mL (≈ 0.176 µM)
MIC Streptococcus pneumoniae (ATCC 6301) (Streptococcus sp.; Streptococcus pneumoniae (ATCC 6301)): 0.12 µg/mL (≈ 0.0845 µM)
MIC Streptococcus pneumoniae (GC 1894) (Streptococcus sp.; Streptococcus pneumoniae (GC 1894)): <0.06 µg/mL
MIC Streptococcus pneumoniae (GC 4565) (Streptococcus sp.; Streptococcus pneumoniae (GC 4565)): <0.06 µg/mL
MIC Streptococcus pyogenes (GC 4563) (Streptococcus sp.; Streptococcus pyogenes (GC 4563)): 0.25 µg/mL (≈ 0.176 µM)
MIC Streptococcus pneumoniae (ATCC 6301) (Streptococcus sp.; strain ATCC 6301): 0.12 µg/mL (≈ 0.0845 µM)
MIC Streptococcus pneumoniae (GC 1894) (Streptococcus sp.; strain GC 1894): <0.06 µg/mL
MIC Streptococcus pyogenes (GC 4563) (Streptococcus sp.; strain GC 4563): 0.25 µg/mL (≈ 0.176 µM)
MIC Streptococcus agalactiae (GC 4564) (Streptococcus sp.; strain GC 4564): 0.25 µg/mL (≈ 0.176 µM)
MIC Streptococcus pneumoniae (GC 4565) (Streptococcus sp.; strain GC 4565): <0.06 µg/mL
MIC Escherichia coli (ATCC 25922) (Escherichia coli; strain ATCC 25922): 32 µg/mL (≈ 22.5 µM)
MIC Escherichia coli (GC 4559) (Escherichia coli; strain GC 4559): 32 µg/mL (≈ 22.5 µM)
MIC Escherichia coli (GC 4560) (Escherichia coli; strain GC 4560): 2 µg/mL (≈ 1.41 µM)
MIC Coagulase Negative Staphylococcus (GC 4547) (Staphylococcus sp.): 2 µg/mL (≈ 1.41 µM)
MIC Coagulase Negative Staphylococcus (GC 4548) (Staphylococcus sp.): 1 µg/mL (≈ 0.704 µM)
MIC Coagulase Negative Staphylococcus (GC 4549) (Staphylococcus sp.): 1 µg/mL (≈ 0.704 µM)
MIC Coagulase Negative Staphylococcus (GC 4551) (Staphylococcus sp.): 2 µg/mL (≈ 1.41 µM)
MIC Staphylococcus aureus (ATCC 29213) (Staphylococcus sp.): 2 µg/mL (≈ 1.41 µM)
MIC Staphylococcus aureus (GC 1131) (Staphylococcus sp.): 2 µg/mL (≈ 1.41 µM)
MIC Staphylococcus aureus (GC 3051) (Staphylococcus sp.): 2 µg/mL (≈ 1.41 µM)
MIC Staphylococcus aureus (GC 3053) (Staphylococcus sp.): 2 µg/mL (≈ 1.41 µM)
MIC Staphylococcus aureus (GC 4541) (Staphylococcus sp.): 2 µg/mL (≈ 1.41 µM)
MIC Staphylococcus aureus (GC 4542) (Staphylococcus sp.): 2 µg/mL (≈ 1.41 µM)
MIC Staphylococcus aureus (GC 4544) (Staphylococcus sp.): 4 µg/mL (≈ 2.82 µM)
MIC Staphylococcus aureus (GC 4545) (Staphylococcus sp.): 2 µg/mL (≈ 1.41 µM)
MIC Staphylococcus aureus-SMITH (GC 4543) (Staphylococcus sp.): 2 µg/mL (≈ 1.41 µM)
MIC Coagulase Negative Staphylococcus (GC 4547) (Staphylococcus sp.; strain GC 4547): 2 µg/mL (≈ 1.41 µM)
MIC Coagulase Negative Staphylococcus (GC 4548) (Staphylococcus sp.; strain GC 4548): 1 µg/mL (≈ 0.704 µM)
MIC Coagulase Negative Staphylococcus (GC 4549) (Staphylococcus sp.; strain GC 4549): 1 µg/mL (≈ 0.704 µM)
MIC Coagulase Negative Staphylococcus (GC 4551) (Staphylococcus sp.; strain GC 4551): 2 µg/mL (≈ 1.41 µM)
MIC Staphylococcus aureus-SMITH (GC 4543) (Staphylococcus sp.; strain SMITH GC 4543): 2 µg/mL (≈ 1.41 µM)
MIC Staphylococcus aureus (ATCC 29213) (Staphylococcus sp.; strain ATCC 29213): 2 µg/mL (≈ 1.41 µM)
MIC Staphylococcus aureus (GC 1131) (Staphylococcus sp.; strain GC 1131): 2 µg/mL (≈ 1.41 µM)
MIC Staphylococcus aureus (GC 3051) (Staphylococcus sp.; strain GC 3051): 2 µg/mL (≈ 1.41 µM)
MIC Staphylococcus aureus (GC 3053) (Staphylococcus sp.; strain GC 3053): 2 µg/mL (≈ 1.41 µM)
MIC Staphylococcus aureus (GC 4541) (Staphylococcus sp.; strain GC 4541): 2 µg/mL (≈ 1.41 µM)
MIC Staphylococcus aureus (GC 4542) (Staphylococcus sp.; strain GC 4542): 2 µg/mL (≈ 1.41 µM)
MIC Staphylococcus aureus (GC 4544) (Staphylococcus sp.; strain GC 4544): 4 µg/mL (≈ 2.82 µM)
MIC Staphylococcus aureus (GC 4545) (Staphylococcus sp.; strain GC 4545): 2 µg/mL (≈ 1.41 µM)
MIC Enterococcus avium (GC 4558) (Enterococcus sp.; Enterococcus avium (GC 4558)): 4 µg/mL (≈ 2.82 µM)
MIC Enterococcus faecalis (ATCC 29212) (Enterococcus sp.; Enterococcus faecalis (ATCC 29212)): 8 µg/mL (≈ 5.64 µM)
MIC Enterococcus faecalis (GC 2242) (Enterococcus sp.; Enterococcus faecalis (GC 2242)): 4 µg/mL (≈ 2.82 µM)
MIC Enterococcus faecalis (GC 2691) (Enterococcus sp.; Enterococcus faecalis (GC 2691)): 4 µg/mL (≈ 2.82 µM)
MIC Enterococcus faecalis (GC 3059) (Enterococcus sp.; Enterococcus faecalis (GC 3059)): 8 µg/mL (≈ 5.64 µM)
MIC Enterococcus faecalis (GC 4552) (Enterococcus sp.; Enterococcus faecalis (GC 4552)): 4 µg/mL (≈ 2.82 µM)
MIC Enterococcus faecalis (GC 4553) (Enterococcus sp.; Enterococcus faecalis (GC 4553)): 4 µg/mL (≈ 2.82 µM)
MIC Enterococcus faecalis (GC 4554) (Enterococcus sp.; Enterococcus faecalis (GC 4554)): 8 µg/mL (≈ 5.64 µM)
MIC Enterococcus faecalis (GC 6189) (Enterococcus sp.; Enterococcus faecalis (GC 6189)): 4 µg/mL (≈ 2.82 µM)
MIC Enterococcus faecium (GC 2243) (Enterococcus sp.; Enterococcus faecium (GC 2243)): 4 µg/mL (≈ 2.82 µM)
MIC Enterococcus faecium (GC 4556) (Enterococcus sp.; Enterococcus faecium (GC 4556)): 8 µg/mL (≈ 5.64 µM)
MIC Enterococcus faecium (GC 4557) (Enterococcus sp.; Enterococcus faecium (GC 4557)): 2 µg/mL (≈ 1.41 µM)
MIC Enterococcus faecalis (ATCC 29212) (Enterococcus sp.; strain ATCC 29212): 8 µg/mL (≈ 5.64 µM)
MIC Enterococcus faecalis (GC 2242) (Enterococcus sp.; strain GC 2242): 4 µg/mL (≈ 2.82 µM)
MIC Enterococcus faecium (GC 2243) (Enterococcus sp.; strain GC 2243): 4 µg/mL (≈ 2.82 µM)
MIC Enterococcus faecalis (GC 2691) (Enterococcus sp.; strain GC 2691): 4 µg/mL (≈ 2.82 µM)
MIC Enterococcus faecalis (GC 3059) (Enterococcus sp.; strain GC 3059): 8 µg/mL (≈ 5.64 µM)
MIC Enterococcus faecalis (GC 4552) (Enterococcus sp.; strain GC 4552): 4 µg/mL (≈ 2.82 µM)
MIC Enterococcus faecalis (GC 4553) (Enterococcus sp.; strain GC 4553): 4 µg/mL (≈ 2.82 µM)
MIC Enterococcus faecalis (GC 4554) (Enterococcus sp.; strain GC 4554): 8 µg/mL (≈ 5.64 µM)
MIC Enterococcus faecium (GC 4556) (Enterococcus sp.; strain GC 4556): 8 µg/mL (≈ 5.64 µM)
MIC Enterococcus faecium (GC 4557) (Enterococcus sp.; strain GC 4557): 2 µg/mL (≈ 1.41 µM)
MIC Enterococcus avium (GC 4558) (Enterococcus sp.; strain GC 4558): 4 µg/mL (≈ 2.82 µM)
MIC Enterococcus faecalis (GC 6189) (Enterococcus sp.; strain GC 6189): 4 µg/mL (≈ 2.82 µM)
Structure (SMILES): N=C1NCC(C(O)C2NC(=O)C(Cc3ccc(OC4OC(CO)C(OC5OC(CO)C(O)C6OC7(OC56)C5CC6CC(C5)CC7C6)C(O)C4O)cc3)NC(=O)C(CC3CCCCC3)NC(=O)CNC(=O)C(CO)NC(=O)C(C(O)C3CNC(=N)N3C3OC(CO)C(O)C(O)C3O)NC2=O)N1 (centres unmarked) [Example 106a, Cyclo[3-cyclohexylalanyl-O-[4-O-[2,3-O-(2-adamantylidene)hexopyranosyl]hexopyranosyl]-tyrosyl-3-(2-iminoimidazolidin-4-yl)seryl-3-(3-hexopyranosyl-2-iminoimidazolidin-4-yl)-serylserylglycyl]]
MIC Staphylococcus haemolyticus (GC 4546) (Staphylococcus sp.): 2 µg/mL (≈ 1.41 µM)
MIC Staphylococcus haemolyticus (GC 4546) (Staphylococcus sp.; strain GC 4546): 2 µg/mL (≈ 1.41 µM)
